Where two headings read alike, the source gives them in different places.
How the values were obtained:
[1] = in vivo; cited from earlier work
[2] = cynomolgus monkey, in vivo; cited from earlier work
[3] = dog, in vivo; cited from earlier work
[4] = rat, in vivo, po; cited from earlier work
314 Enterobacteriaceae = type: cell-based; conditions: for MIC90 with addition of avibactam: all isolates combined, avibactam at a fixed concentration of 4 μg/mL; for Estimated MIC90: Enterobacteria n = 314 (all isolates combined), avibactam or clavulanic acid fixed at 4 μg/mL in combinations
[5] = system: pAmpC (PlasAmpC) isolates (n = 20); type: cell-based, Enterobacteriaceae; conditions: pAmpC n = 20; avibactam or clavulanic acid fixed at 4 μg/mL in combinations
[6] = system: ESBL-positive isolates (n = 28); type: cell-based, Enterobacteriaceae; conditions: ESBL n = 28; avibactam or clavulanic acid fixed at 4 μg/mL in combinations
[7] = system: OXA-positive isolates (n = 22); type: cell-based, Enterobacteriaceae; conditions: for Estimated MIC90: OXA n = 22, avibactam or clavulanic acid fixed at 4 μg/mL in combinations; for MIC90 with addition of avibactam: OXA-positive isolates, avibactam 4 μg/mL
[8] = system: KPC-positive isolates (n = 23); type: cell-based, Enterobacteriaceae; conditions: for Estimated MIC90: KPC n = 23, avibactam or clavulanic acid fixed at 4 μg/mL in combinations; for MIC90 with addition of avibactam: KPC-positive isolates, avibactam 4 μg/mL
[9] = Oral administration of avibactam derivative (3) to healthy human volunteers (Example 2), plasma avibactam; type: in vivo; conditions: for AUC0-INF: unit not given
Description: The pharmacokinetics of avibactam provided as an orally administered avibactam derivative was determined on healthy human volunteers.
[…] The plasma concentration of avibactam was measured. The free avibactam concentration was adjusted for from 5% to 8% protein binding (AUCfree=AUC0-inf×[…]).

[10] = Single ascending oral dose phase 1 study of avibactam derivative (3) (Example 3), avibactam PK; type: in vivo, human; conditions: avibactam in plasma, fed
Description: The pharmacokinetics of avibactam provided as an orally administered avibactam derivative was determined on healthy human volunteers. A randomized, double-blind, placebo-controlled single ascending dose phase 1 study was undertaken with healthy male and female adults. […] Plasma and urine PK samples were collected prior to dosing and at frequent intervals after dosing. […] FIG. 12 also provides an overall estimate of F for the study population (n=24) presented as a conventional box-whisker graphic (median, interquartile range [25-75%] and Tukey whiskers).

[11] = avibactam, oral 300 mg of avibactam derivative (3), healthy

CC(C)(COS(=O)(=O)ON1C(=O)N2C[C@H]1CC[C@H]2C(N)=O)C(=O)OCc1ccccc1 [avibactam derivative (4), benzyl 3-(((((1R,2S,5R)-2-carbamoyl-7-oxo-1,6-diazabicyclo[3.2.1]octan-6-yl)oxy)sulfonyl)oxy)-2,2-dimethylpropanoate]
oral bioavailability (% F) [1]: greater than 10 % F

COC(=O)C(C)(C)COS(=O)(=O)ON1C(=O)N2C[C@H]1CC[C@H]2C(N)=O [avibactam derivative (10), methyl 3-(((((1R,2S,5R)-2-carbamoyl-7-oxo-1,6-diazabicyclo[3.2.1]octan-6-yl)oxy)sulfonyl)oxy)-2,2-dimethylpropanoate]
oral bioavailability (% F) [1]: greater than 10 % F

CC(C)OC(=O)C(C)(C)COS(=O)(=O)ON1C(=O)N2C[C@H]1CC[C@H]2C(N)=O [avibactam derivative (11), isopropyl 3-(((((1R,2S,5R)-2-carbamoyl-7-oxo-1,6-diazabicyclo[3.2.1]octan-6-yl)oxy)sulfonyl)oxy)-2,2-dimethylpropanoate]
oral bioavailability (% F) [1]: greater than 10 % F

CCCCCCOC(=O)C(C)(C)COS(=O)(=O)ON1C(=O)N2C[C@H]1CC[C@H]2C(N)=O [avibactam derivative (12), hexyl 3-(((((1R,2S,5R)-2-carbamoyl-7-oxo-1,6-diazabicyclo[3.2.1]octan-6-yl)oxy)sulfonyl)oxy)-2,2-dimethylpropanoate]
oral bioavailability (% F) [1]: greater than 10 % F

CCCCCCCOC(=O)C(C)(C)COS(=O)(=O)ON1C(=O)N2C[C@H]1CC[C@H]2C(N)=O [avibactam derivative (13), heptyl 3-(((((1R,2S,5R)-2-carbamoyl-7-oxo-1,6-diazabicyclo[3.2.1]octan-6-yl)oxy)sulfonyl)oxy)-2,2-dimethylpropanoate]
oral bioavailability (% F) [1]: greater than 10 % F | avibactam oral bioavailability [2]: greater than 50 % F | avibactam oral bioavailability [3]: greater than 50 % F

CC(C)(C)OC(=O)C(C)(C)COS(=O)(=O)ON1C(=O)N2C[C@H]1CC[C@H]2C(N)=O [avibactam derivative (14), tert-butyl 3-(((((1R,2S,5R)-2-carbamoyl-7-oxo-1,6-diazabicyclo[3.2.1]octan-6-yl)oxy)sulfonyl)oxy)-2,2-dimethylpropanoate]
oral bioavailability (% F) [1]: greater than 10 % F

CCCCCCOC(=O)CCC(C)(C)COS(=O)(=O)ON1C(=O)N2C[C@H]1CC[C@H]2C(N)=O [avibactam derivative (36), hexyl 5-(((((1R,2S,5R)-2-carbamoyl-7-oxo-1,6-diazabicyclo[3.2.1]octan-6-yl)oxy)sulfonyl)oxy)-4,4-dimethylpentanoate]
avibactam oral bioavailability (% F) [4]: greater than 10 % F

CCCCCCCOC(=O)CCC(C)(C)COS(=O)(=O)ON1C(=O)N2C[C@H]1CC[C@H]2C(N)=O [avibactam derivative (37), heptyl 5-(((((1R,2S,5R)-2-carbamoyl-7-oxo-1,6-diazabicyclo[3.2.1]octan-6-yl)oxy)sulfonyl)oxy)-4,4-dimethylpentanoate]
avibactam oral bioavailability (% F) [4]: greater than 10 % F

CCCOC(=O)C(C)(C)COS(=O)(=O)ON1C(=O)N2C[C@H]1CC[C@H]2C(N)=O [avibactam derivative (57), propyl 3-(((((1R,2S,5R)-2-carbamoyl-7-oxo-1,6-diazabicyclo[3.2.1]octan-6-yl)oxy)sulfonyl)oxy)-2,2-dimethylpropanoate]
avibactam oral bioavailability (% F) [4]: greater than 10 % F

CCCCOC(=O)C(C)(C)COS(=O)(=O)ON1C(=O)N2C[C@H]1CC[C@H]2C(N)=O [avibactam derivative (58), butyl 3-(((((1R,2S,5R)-2-carbamoyl-7-oxo-1,6-diazabicyclo[3.2.1]octan-6-yl)oxy)sulfonyl)oxy)-2,2-dimethylpropanoate]
avibactam oral bioavailability (% F) [4]: greater than 10 % F

C[C@H]1[C@H](NC(=O)/C(=N\OC(C)(C)C(=O)O)c2csc(N)n2)C(=O)N1S(=O)(=O)O [aztreonam]
MIC90 with addition of avibactam (314 Enterobacteriaceae): 0.5 µg/mL

C=CC1=C(C(=O)O)N2C(=O)[C@@H](NC(=O)/C(=N\OCC(=O)O)c3csc(N)n3)[C@H]2SC1 [cefixime]
MIC90 with addition of avibactam (314 Enterobacteriaceae): 1 µg/mL

COCC1=C(C(=O)O)N2C(=O)[C@@H](NC(=O)/C(=N\OC)c3csc(N)n3)[C@H]2SC1 [cefpodoxime]
Estimated MIC90 [5]: >32 µg/mL | Estimated MIC90 [6]: >32 µg/mL | Estimated MIC90 [7]: >32 µg/mL | Estimated MIC90 (314 Enterobacteriaceae): >32 µg/mL | MIC90 with addition of avibactam (314 Enterobacteriaceae): 4 µg/mL | Estimated MIC90 [8]: >32 µg/mL

C[C@@H](O)[C@H]1C(=O)N2C(C(=O)O)=C(S[C@H]3CC[S@@+]([O-])C3)S[C@H]12 [sulopenem]
Estimated MIC90 [5]: 0.5 µg/mL | Estimated MIC90 [6]: 0.12 µg/mL | Estimated MIC90 [7]: >32 µg/mL | MIC90 with addition of avibactam [7]: 1 µg/mL | Estimated MIC90 (314 Enterobacteriaceae): 8 µg/mL | MIC90 with addition of avibactam (314 Enterobacteriaceae): 0.25 µg/mL | Estimated MIC90 [8]: >32 µg/mL | MIC90 with addition of avibactam [8]: 1 µg/mL

C[C@@H](O)[C@H]1C(=O)N2C(C(=O)O)=C(SC3CN(C4=NCCS4)C3)[C@H](C)[C@H]12 [tebipenem]
Estimated MIC90 [5]: 0.25 µg/mL | Estimated MIC90 [6]: 0.12 µg/mL | Estimated MIC90 [7]: >32 µg/mL | MIC90 with addition of avibactam [7]: 1 µg/mL | Estimated MIC90 (314 Enterobacteriaceae): 2 µg/mL | MIC90 with addition of avibactam (314 Enterobacteriaceae): 0.25 µg/mL | Estimated MIC90 [8]: >32 µg/mL | MIC90 with addition of avibactam [8]: 1 µg/mL

ethyl 3-(((((1R,2S,5R)-2-carbamoyl-7-oxo-1,6-diazabicyclo[3.2.1]octan-6-yl)oxy)sulfonyl)oxy)-2,2-dimethylpropanoate [avibactam derivative (3)]
oral bioavailability (% F) [1]: greater than 10 % F | avibactam oral bioavailability [2]: greater than 50 % F | AUC0-INF ([9]; First Quartile, avibactam): 5.9 | AUC0-INF ([9]; Max, avibactam): 10.9 | AUC0-INF ([9]; Mean, avibactam): 7.6 | AUC0-INF ([9]; Min, avibactam): 3.1 | AUC0-INF ([9]; ThirdQuartile, avibactam): 10.1 | AUCinf [9, 11]: about 7,600 ng×h/mL | T1/2 [9, 11]: about 1.5 hours | T1/2 ([9]; oral 600 mg of avibactam derivative (3), healthy): about 1.5 hours | dose of IV avibactam approximated by the oral dose ([9]; orally administered dose not given): ~400 mg | dose of IV avibactam approximated by the oral dose ([9]; orally administered dose of 300 mg): ~62.5 mg | Thalf ([10]; single oral dose 300 mg): 1.51 (0.24) h | Thalf ([10]; single oral dose 900 mg): 2.65 (0.46) h | Thalf ([10]; single oral dose 1,350 mg): 2.33 (0.18) h | avibactam oral bioavailability [3]: greater than 50 % F

From patent US20210060033A1, “ORALLY ADMINISTERED COMBINATIONS OF BETA-LACTAM ANTIBIOTICS AND AVIBACTAM DERIVATIVES FOR TREATING BACTERIAL INFECTIONS” (priority 2019, published 2021)
